The test system of one data set is PPARα. Nature of the data set: PPARα transcription in infected Huh7.5.1 cells. Format: cell-based, human. The settings on record: short term 24 hours stimulation of Huh7.5.1 cells. How it is done:
(§1) Virus samples collected in each experiment were filtered with a 0.45 μm filter and a volume of 100 μL for each sample was heated at 95° C. for 45 min. The reverse transcription reaction step was performed on a Mastercycler epgrdientS (Eppendorf) instrument using Omniscript and Sensiscript RT Kits (Qiagen). Real time PCR was performed on a Light Cycler LC-24 (Idaho Technology), using SuperScript™ III Platinum® CellsDirect Two-Step qRT-PCR Kits (Invitrogen) for quantitative PCR. For reverse transcription step, 2 μL of sample without RNA extraction were used. For real time PCR, 1 μL of the reverse transcription reactions was used. All reactions were performed according to the manufacturer's instructions using the primers detailed in Table 1.
PPARα and LXRα are ligand-activated transcription factors which control much of the fasted-to-fed transition and were previously shown to be important in the development of inflammation and insulin resistance. […] Following a short term 24 hours stimulation of Huh7.5.1 cells PPARα transcription increased by 86%, while LXRα was decreased by 25%. PPARα is the target of fibrates and plays a major role in the downregulation of inflammation, increasing sensitivity to insulin, and modulating dyslipidemia.

The subject of the next data set is HMGR. Nature of the data set: HMGR transcription by qPCR in infected Huh7.5.1 cells. The settings on record: naringenin 24 hours, infected Huh-7.5.1 cells. It is filed as cell-based, human. For orientation: In qPCR the cycle at which signal appears reflects the starting amount.
For data set [1] the following is noted: oral; cited from earlier work.
For another data set, the system named is S-180 sarcoma cell line. The settings on record: intraperitoneal or peroral injection once a day for 5 days, mice, cited from earlier work.
For another data set, the system named is MTP. In words: MTP mRNA level by qPCR in infected Huh7.5.1 cells. Format: cell-based, human. The settings on record: naringenin 24 hours.
A further data set is described as follows: physchem. Conditions: 37 °C, water, thermodynamic from solid, naringenin solubility in water.
For a further data set, the system named is ApoB. Nature of the data set: ApoB secretion by JFH-1 infected Huh-7.5.1 cells (human ApoB ELISA). Format: cell-based. Conditions: 24 hours, brefeldin A 2.5 μg/ml. The protocol: (§2) HCV-infected Huh-7.5.1 cells were plated on a 6-well plate at a density of 1×10^5 cells/cm^2 and cultured overnight in standard medium. Prior to the beginning of the experiment, the cells were washed 3 times with PBS and cultured with DMEM containing 5% lipoprotein-free FBS. Oleate, Insulin, Naringenin, and Brefeldin A were added at this time as described in the text. Following 24 hours of incubation, the plate was gently agitated to release mechanically bound particles, the media was collected, filtered to remove cellular debris, and stored at −80° C. for further analysis. The attached cells were washed 3 times with PBS, harvested, pelleted and stored at −80° C. for further analysis.
Huh-7.5.1 and primary human hepatocytes secreted ApoB was detected in the media using ALerCHEK, Inc (Portland, Me.) total human ApoB ELISA kit. Media was diluted 1:10 with the specimen diluent, and the assay was carried out according to manufacturer's directions.
HCV-infected Huh-7.5.1 cells were plated T-25 tissue culture flasks at a density of 1×10^5 cells/cm^2 and cultured overnight in standard medium. Prior to silencing, the cells were washed 3 times with PBS and media was replaced with OptiMEM basal medium. SureSilencing shRNA (GFP) plasmids against human ApoB100 as well as shRNA plasmid control (500 ng/ml) were combined with lipofectamine 2000 in OptiMEM and incubated with the cells overnight. SureSilencing shRNA plasmids code for GFP which was used to sort the transfected Huh7.5.1 cells, using FACSAria (BD Biosciences) located at the Partners AIDS Research Center. Transfected cells (10% of the total population) were sorted directly into a 12-well plate and allowed to adhere overnight. Culture media was conditioned by the transfected cells for 24 hours and analyzed as described above.
(In general: ELISA stands for enzyme-linked immunosorbent assay.)

Data set [2] addresses T1, Microsomal triglyceride transfer protein (MTP) (Homo sapiens, UniProt P55157).
T1 construct: The MTP assay was performed by incubating 50 μg cellular protein with 10 μl of donor and acceptor solutions; endogenous in cells; host or cells: Huh7.5.1 human hepatoma cells (sonicated homogenate, 50 µg cellular protein)
Nature of the data set: Microsomal triglyceride transfer protein (MTP) activity assay in Huh7.5.1 cell homogenates. Conditions: Huh-7.5.1, 24 hours stimulation of Huh7.5.1 cells. Format: cell-based. How it is done:
MTP activity was analyzed using an MTP assay kit as previously described (11). The assay is based on a transfer of a fluorescent signal between donor and acceptor particles due to MTP activity. Briefly, confluent Huh7.5.1 cells stimulated with naringenin or carrier control for 24 hours then washed with ice cold PBS and scraped off the dish using a cell scraper. Samples were homogenized by sonication (3×5 sec) in buffer containing protease inhibitors. The MTP assay was performed by incubating 50 μg cellular protein with 10 μl of donor and acceptor solutions in 250 μl total buffer (15 mM Tris pH 7.4; 40 mM NaCl; 1 mM EDTA). Increase in fluoresecent signal was measured over 12 hours at 37° C. at the excitation wavelength of 465 nm and emission wavelength of 538 nm.

Data set [3] deals with HCV (JFH-1) in Huh-7.5.1 cells. Nature of the data set: Intracellular HCV RNA and core protein in infected Huh-7.5.1 cells. It is filed as cell-based, Hepatitis C virus. How it is done:
as §2, §1
Huh-7.5.1 cells were washed 3 times with PBS and fixed in 4% EM-grade paraformaldehyde for 10 minutes at room temperature. Slides were then washed with PBS and incubated in 100 mmol/L glycine for 15 minutes to saturate reactive groups. Samples were permeabilized for 15 minutes with 0.1% Triton X-100, blocked for 30 minutes with 1% bovine serum albumin and 5% donkey serum at room temperature, and stained with primary antibodies overnight at 4° C. After additional washes with PBS, samples were stained with fluorescently tagged secondary antibodies for 45 minutes at room temperature.

≈ marks a conversion by molar mass, not a printed value. Entries after “also recorded” stand apart in the source; their conditions may differ. Where two headings read alike, the source gives them in different places.

T1 sequence (P55157 19-894): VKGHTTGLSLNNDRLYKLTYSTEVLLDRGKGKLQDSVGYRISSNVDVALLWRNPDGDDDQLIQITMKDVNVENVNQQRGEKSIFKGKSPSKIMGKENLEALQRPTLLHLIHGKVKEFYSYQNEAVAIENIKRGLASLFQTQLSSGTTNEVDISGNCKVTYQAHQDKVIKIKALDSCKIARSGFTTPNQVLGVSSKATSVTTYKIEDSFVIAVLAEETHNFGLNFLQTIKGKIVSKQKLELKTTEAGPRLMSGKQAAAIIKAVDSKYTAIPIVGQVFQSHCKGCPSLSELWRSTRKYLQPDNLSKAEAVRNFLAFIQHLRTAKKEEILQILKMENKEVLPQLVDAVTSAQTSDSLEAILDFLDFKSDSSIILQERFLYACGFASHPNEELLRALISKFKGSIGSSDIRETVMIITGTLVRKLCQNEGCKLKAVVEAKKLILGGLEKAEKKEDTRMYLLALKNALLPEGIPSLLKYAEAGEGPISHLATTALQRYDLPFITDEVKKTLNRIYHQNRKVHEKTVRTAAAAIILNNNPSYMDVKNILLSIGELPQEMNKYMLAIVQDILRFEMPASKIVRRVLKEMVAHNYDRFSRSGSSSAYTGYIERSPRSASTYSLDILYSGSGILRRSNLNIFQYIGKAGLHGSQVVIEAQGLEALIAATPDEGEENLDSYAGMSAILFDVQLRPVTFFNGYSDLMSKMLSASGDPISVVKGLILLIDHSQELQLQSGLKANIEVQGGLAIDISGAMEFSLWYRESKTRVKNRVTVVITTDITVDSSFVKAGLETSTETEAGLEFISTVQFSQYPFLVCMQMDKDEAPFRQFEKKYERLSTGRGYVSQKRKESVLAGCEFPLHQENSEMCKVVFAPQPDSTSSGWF
T1 sequence (P07237 18-508 partner): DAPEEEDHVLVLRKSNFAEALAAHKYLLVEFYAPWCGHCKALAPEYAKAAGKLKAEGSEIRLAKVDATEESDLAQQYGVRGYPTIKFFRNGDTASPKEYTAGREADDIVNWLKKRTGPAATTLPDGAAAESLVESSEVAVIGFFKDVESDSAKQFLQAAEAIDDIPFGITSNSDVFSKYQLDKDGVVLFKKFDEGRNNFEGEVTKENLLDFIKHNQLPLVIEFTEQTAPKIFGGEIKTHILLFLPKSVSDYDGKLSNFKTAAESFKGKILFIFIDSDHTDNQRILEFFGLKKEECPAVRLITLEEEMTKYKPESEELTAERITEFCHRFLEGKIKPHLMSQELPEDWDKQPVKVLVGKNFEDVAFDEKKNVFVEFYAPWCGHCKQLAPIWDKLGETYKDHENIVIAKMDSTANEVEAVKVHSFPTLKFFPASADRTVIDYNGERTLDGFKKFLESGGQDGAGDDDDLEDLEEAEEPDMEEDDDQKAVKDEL

As for `O=C1C[C@@H](c2ccc(O)cc2)Oc2cc(O)cc(O)c21` [naringenin], the “increase of PPARα transcription” value with PPARα stood at 86%. In the data set with HMGR, the “reduction of HMGR transcription” value is listed as 57%±3%. The “absorbance through the intestinal wall (intestinal absorption)” value in [1] is “about 6%”. Besides, the “tumor growth of S-180 sarcoma” value in the data set on S-180 sarcoma cell line was “significantly inhibit”. Besides, the “tumor growth of S-180 sarcoma” value in the data set on S-180 sarcoma cell line (listed as Naringenin) is given as “significantly inhibits”. For the same molecule, the “MTP mRNA level” value in the data set on MTP is on record as “remained unchanged”. Besides, the concentration in solution in the data set “physchem” (solubility) came to 40 µM (≈ 10.9 µg/mL). For the same molecule, in the data set on ApoB, the “ApoB secretion (in words)” value is listed as “Inhibition”. For the same molecule, the inhibition (in general, the share of the control response that was lost under treatment) at 200 µM in data set [2] was 58%. In [3] (24 hours stimulation), the “intracellular HCV core protein expression” value was “remained unchanged” and the “intracellular levels of HCV (positive strand) RNA” value was “remains unchanged”. The “HCV replication (intracellular HCV RNA), long-term treatment” value in [3] (long-term treatment, naringenin 200 μM, IFNα 1000 i.u.) was “didn't appear to effect; also recorded: remained unchanged”.

The record behind these values is patent US20160228575A1, “NARINGENIN COMPLEXES AND METHODS OF USE THEREOF” (THE GENERAL HOSPITAL CORPORATION, priority 2008, published 2016).
